Results reported in paper PMC3299299, “Recombinant Expression and Characterization of Human and Murine ACE2: Species-Specific Activation of the Alternative Renin-Angiotensin-System” (International Journal of Hypertension, 2012).

Columns and labels:
Type in all cases: biochemical
[1] = system: human RAS in blood plasma; experiment: Ex vivo incubation of renin-spiked human plasma, RAS-Fingerprinting by LC-MS/MS; details: human plasma + 100 pg/mL recombinant human renin, 10 μM Lisinopril present, without or with 5 μg/mL enzyme, 10 min 37°C (Fig 3b)
Procedure: Anticoagulated blood was collected from healthy volunteers, and plasma was separated by 10 minutes centrifugation at 3000 RCF. […] After 10 minutes of incubation at 37°C, in the presence or absence of Lisinopril (Sigma), samples were chilled on ice and immediately subjected to LC-MS/MS analysis.
Plasma samples were spiked with 100 pg/mL stable-isotope-labeled internal standards and subjected to solid-phase extraction using Sep-Pak cartridges (Waters) according to manufacturers protocol. Following elution and solvent evaporation, samples were reconstituted in 50 μL 50% acetonitrile/0.1% formic acid and subjected to LC-MS/MS analysis using a reversed-phase analytical column (Luna C18, Phenomenex) using a gradient ranging from 10% acetonitrile/0.1% formic acid to 70% acetonitrile/0.1% formic acid in 9 minutes. The eluate was analyzed in line with a QTRAP-4000 mass spectrometer (AB Sciex) operated in the MRM mode using dwell times of 25 msec at a cone voltage of 4000 volts and a source temperature of 300°C. For each peptide and corresponding internal standards, two different mass transitions were measured. Angiotensin peptide concentrations were calculated by relating endogenous peptide signals to internal standard signals provided that integrated signals achieved a signal-to-noise ratio above 10.
RAS-Fingerprints were measured by LC-MS/MS as indicated in Section 2. Samples were incubated in the absence (a) or presence (b) of 10 μM of the ACE inhibitor Lisinopril. In this figure, the diameter of the spheres reflects the concentration of the respective peptide metabolite, which is also given in pg/mL next to each individual sphere. 0 pg/mL indicates concentrations below quantification limits, which are defined by a signal-to-noise ratio below 10. Furthermore, the amino acid sequence of each angiotensin metabolite is schematically given in brackets beside the corresponding sphere. The sequence annotation is based on the decapeptide Angiotensin I (1–10) which is N- or C-terminally cleaved by the indicated proteases. […]

RAS in whole blood = experiment: Ex vivo incubation of whole blood, RAS-Fingerprinting; details: whole blood instead of plasma, control and rhACE2 samples (Supplementary Figure 1)
Source text: These findings were in contrast to previously published reports on Ang 1–7 accumulating effects of ACE inhibitors in vivo [20, 21]. In our experimental setting, we employed heparinized blood plasma as a sample matrix for ACE2 characterization which is reflecting in vivo conditions very well. However, plasma lacks all blood cells which might carry receptors and angiotensin peptide converting enzymes being able to affect angiotensin peptide concentrations in vivo. […] As neutral endopeptidase (NEP, CD10) is known to be expressed on the cell surface of leukocytes and that it is able to convert Ang 1–10 and Ang 1–9 to Ang 1–7 in vitro [18], NEP is very likely to be responsible for Ang 1–7 accumulation also in vivo, especially in the presence of ACE inhibitors which block the formation of Ang 1–8 which is an important precursor for Ang 1–7.

Ang 1–10 = experiment: In vitro kinetic assay, Ang 1–10 cleavage to Ang 1–9, HPLC quantification; details: […] enzyme, 65 μM Ang 1–10, MES buffer pH 6.5, 37°C, HPLC; mean of substrate degradation and product formation rates related to enzyme concentration; triplicates
Procedure: (§1) Enzyme reactions were started by adding a defined amount of enzyme to substrate dilutions in MES-buffer (50 mM MES, 300 mM NaCl, 10 μM ZnCl2, 0.01% Brij-35, pH 6.5) which were previously equilibrated at 37°C. Aliquots of the reaction mixes were taken every 10 minutes and stopped by addition of 0.5 M EDTA to a final concentration of 100 mM before HPLC-based quantification of peptides.
(§2) The concentration of peptides in enzymatic reactions was quantified by detection of peaks eluted from the HPLC column using an in-line diode array detector. Chromatography was performed by running a gradient on a reversed-phase matrix (Source 5RPC, 4.6×150 mm, 5 μm) with 0.08% H3PO4 in water as mobile phase A and 40% acetonitrile in water and 0.08% H3PO4 as mobile phase B. The optical density at 280 nm was recorded inline for all eluting peaks, and peptide concentrations were calculated via calibration curves for each individual peptide.
(§3) The turnover rates for natural ACE2 substrates were determined by in vitro incubation with excess amounts of substrate followed by reversed-phase HPLC analysis. […] Each time point was analyzed in true triplicates and standard deviations are given in the graphs together with linear regressions of the measured values.

Ang 1–8 = experiment: In vitro kinetic assay, Ang 1–8 cleavage to Ang 1–7, HPLC quantification; details: ratio of k cat of the same enzyme for the two substrates
Procedure: as §1, §2
as §3, with “analysis. […] The resulting time courses are shown in the graphs.” for “analysis.”

Compound	Ang (1–10) concentration in plasma ([1]; 0 = below quantification limit) [pg/mL]	Ang (1–7) concentration in plasma ([1]; 0 = below quantification limit (2 pg/mL plasma)) [pg/mL]	Ang 1–7 concentration in whole blood in response to Lisinopril (RAS in whole blood)	k cat, Ang 1–10 ≥ Ang 1–9 (Ang 1–10) [s⁻¹]	turnover number for Ang 1–8 compared to Ang 1–10 (Ang 1–8) [fold]
NCCCC[C@H](N[C@@H](CCc1ccccc1)C(=O)O)C(=O)N1CCC[C@H]1C(=O)O [Lisinopril]	710	< 2	increase of Ang 1–7 concentrations		
rhACE2: extracellular domain of human ACE2 recombinantly expressed in CHO cells				0.018	42
